System: T-47D spheroids with HUVEC/MSC, viability
Test: Anticancer human tumor T-47D cell line growth inhibition [PI3K];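 note: spheroids exposed to agents for seven days before reading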;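 for viability, T/C: percent of DMSO vehicle control luminescence so 100% = untreated growth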
Details: for IC50: curve of first compound; for viability, T/C: stronger effect = lower value
Description: Combinatorial screen of targeted agents with the PI3K inhibitors inavolisib, alpelisib, duvelisib, and copanlisib in multi-cell type tumor spheroids
A high-throughput screen of multi-cell type tumor spheroids was designed to identify active combinations of targeted small molecules and PI3K pathway inhibitors. Complex spheroids include a stromal component modeled by human endothelial cells (HUVEC) and fibroblasts modeled by human mesenchymal stem cells (MSCs). The concentration ranges selected for each drug and investigational agent were based upon clinically achievable concentrations if the clinical Cmax of the agent was known.
Compounds. The drugs and investigational agents: inavolisib (NSC800729), alpelisib (NSC765974), duvelisib (NSC772469), copanlisib (NSC816437), ipatasertib (NSC767898), afuresertib (NSC778305), talazoparib (NSC767125), sapanisertib (NSC764658), selumetinib (NSC741078), tovorafenib (DAY101, NSC766906), vemurafenib (NSC761431), ravoxertinib (NSC781343), sotorasib (NSC818433), MRTX1133 (NSC 836407), abemaciclib (NSC 768073), palbociclib (NSC758247), venetoclax (NSC 766270), SY5609 (NSC837396), enzalutamide (NSC755605), and darolutamide (NSC825331), were obtained from the National Cancer Institute (NCI) Developmental Therapeutics Program Chemical Repository. The FDA-approved anticancer drug set is available from the NCI Developmental Therapeutics Program. […] The stock solutions were prepared in dimethyl sulfoxide (DMSO, Sigma-Aldrich, St. Louis, MO, cat. D2650) at 800-fold the tested concentration and stored at -70 degrees C prior to their use. All drugs and investigational agents were tested over a range starting from a high concentration at or near the clinical Cmax and decreasing in half-log increments. If the clinical Cmax for an agent had not been determined, the highest concentration tested was 10 microM.
Cell Culture. All cells were maintained in an incubator at 37 degrees C and 5% CO2 with 95% humidity. The PDC lines were cultured according to standard operating procedures established by the NCI PDMR (https://pdmr.cancer.gov/sops/default.htm). All PDCs were thawed and cultured in Matrigel-coated flasks prepared with a working solution of 1X Ham's F-12 nutrient mix, without supplementation (Invitrogen, Waltham, MA, cat. 11765054), 100 U/mL penicillin-streptomycin (Invitrogen, cat. 15140122), and 2.5% Matrigel (Corning Inc., Corning, NY, cat. 354248) for the first three passages. The 354836-022-R-J1-PDC, 475296-252-R-J1-PDC, and 997726-040-R-J2-PDC lines were cultured in 6A media, which includes advanced DMEM/F-12 (Thermo Fisher Scientific, cat. 12634028), 10 mM HEPES (Thermo Fisher Scientific, cat. 15630080), 1X GlutaMAX supplement (Thermo Fisher Scientific, cat. 35050061), 0.1 mg/mL primocin (InvivoGen, San Diego, CA, cat. ant-pm-2), 10% defined fetal bovine serum, heat inactivated (HyClone Laboratories Inc., Logan, UT, cat. SH30070.03HI), 50% L-WRN conditioned media (ATCC, cat. CRL-3276), 1.25 mM N-Acetyl-L-cysteine (Sigma-Aldrich, cat. A9165), 10 mM nicotinamide (Sigma-Aldrich, cat. N0636), 1X B-27 supplement (Thermo Fisher Scientific, cat. 17504044), 1X N-2 supplement (Thermo Fisher Scientific, cat. 17502048), and 10 microM Y-27632 dihydrochloride (Tocris Bioscience, Bristol, United Kingdom, cat. 1254). The 624824-186-R-J2-PDC line was cultured in 6C/Colon 1B media, which includes all 6A media components plus 50 ng/mL human EGF recombinant protein (Thermo Fisher Scientific, cat. PHG0311). […]

[1] = second compound 0.00316 µM, first compound 0.0316 µM
[2] = second compound 0.00316 µM, first compound 0.1 µM
[3] = second compound 0.00316 µM, first compound 0.316 µM
[4] = second compound 0.00316 µM, first compound 1 µM
[5] = second compound 0.00316 µM, first compound 3.16 µM
[6] = second compound 0.00316 µM, first compound 10 µM
[7] = second compound 0.01 µM, first compound 0.0316 µM
[8] = second compound 0.01 µM, first compound 0.1 µM
[9] = second compound 0.01 µM, first compound 0.316 µM
[10] = second compound 0.01 µM, first compound 1 µM
[11] = second compound 0.01 µM, first compound 3.16 µM
[12] = second compound 0.01 µM, first compound 10 µM
[13] = second compound 0.0316 µM, first compound 0.0316 µM
[14] = second compound 0.0316 µM, first compound 0.1 µM
[15] = second compound 0.0316 µM, first compound 0.316 µM
[16] = second compound 0.0316 µM, first compound 1 µM
[17] = second compound 0.0316 µM, first compound 3.16 µM
[18] = second compound 0.0316 µM, first compound 10 µM
[19] = second compound 0.1 µM, first compound 0.0316 µM
[20] = second compound 0.1 µM, first compound 0.1 µM
[21] = second compound 0.1 µM, first compound 0.316 µM
[22] = second compound 0.1 µM, first compound 1 µM
[23] = second compound 0.1 µM, first compound 3.16 µM
[24] = second compound 0.1 µM, first compound 10 µM
[25] = second compound 0.316 µM, first compound 0.0316 µM
[26] = second compound 0.316 µM, first compound 0.1 µM
[27] = second compound 0.316 µM, first compound 0.316 µM
[28] = second compound 0.316 µM, first compound 1 µM
[29] = second compound 0.316 µM, first compound 3.16 µM
[30] = second compound 0.316 µM, first compound 10 µM
[31] = second compound 1 µM, first compound 0.0316 µM
[32] = second compound 1 µM, first compound 0.1 µM
[33] = second compound 1 µM, first compound 0.316 µM
[34] = second compound 1 µM, first compound 1 µM
[35] = second compound 1 µM, first compound 3.16 µM
[36] = second compound 1 µM, first compound 10 µM

Compound `CC(C)NCC(C(=O)N1CCN(c2ncnc3c2C(C)CC3O)CC1)c1ccc(Cl)cc1` (stereo unspecified) + CC(Nc1ccc2c(c1)OCCn1cc(N3C(=O)OCC3C(F)F)nc1-2)C(N)=O has an IC50 (second compound 0.00316 µM) of 8760 nM, an IC50 (second compound 0.01 µM) greater than 10000 nM and an IC50 (second compound 0.0316 µM) greater than 10000 nM. The IC50 (second compound 0.1 µM) was 3890 nM, the IC50 (second compound 0.316 µM) was 2420 nM and the IC50 (second compound 1 µM) was 62.6 nM. The viability, T/C [1] was 109%, the viability, T/C [2] was 96.1% and the viability, T/C [3] was 82.7%. For the same compound, the viability, T/C [4] was 80.5%, the viability, T/C [5] was 60.5% and the viability, T/C [6] was 48%. For the same compound, the viability, T/C [7] was 94.5%, the viability, T/C [8] was 94.2% and the viability, T/C [9] was 91%. For the same compound, the viability, T/C [10] was 73.6%, the viability, T/C [11] was 66.6% and the viability, T/C [12] was 59%. The viability, T/C [13] was 102%, the viability, T/C [14] was 95.5% and the viability, T/C [15] was 84.7%. The viability, T/C [16] was 68.5%, the viability, T/C [17] was 53.7% and the viability, T/C [18] was 51.6%. The viability, T/C [19] was 94.1%, the viability, T/C [20] was 81.2% and the viability, T/C [21] was 75.7%. It also gave a viability, T/C [22] of 59.3%, a viability, T/C [23] of 51.8% and a viability, T/C [24] of 43.6%. For the same compound, the viability, T/C [25] was 63.2%, the viability, T/C [26] was 64% and the viability, T/C [27] was 56.7%. For the same compound, the viability, T/C [28] was 53.5%, the viability, T/C [29] was 50.1% and the viability, T/C [30] was 41.6%. The viability, T/C [31] was 51.7%, the viability, T/C [32] was 46.8% and the viability, T/C [33] was 52.2%. The viability, T/C [34] was 41.4%, the viability, T/C [35] was 42.3% and the viability, T/C [36] was 44.3%.

`CCN1CCN(Cc2ccc(Nc3ncc(F)c(-c4cc(F)c5nc(C)n(C(C)C)c5c4)n3)nc2)CC1` + CC(Nc1ccc2c(c1)OCCn1cc(N3C(=O)OCC3C(F)F)nc1-2)C(N)=O was tested, and the IC50 (second compound 0.00316 µM) was greater than 1000 nM, the IC50 (second compound 0.01 µM) was greater than 1000 nM and the IC50 (second compound 0.0316 µM) was greater than 1000 nM. For the same compound, the IC50 (second compound 0.1 µM) was greater than 1000 nM, the IC50 (second compound 0.316 µM) was 17.3 nM and the IC50 (second compound 1 µM) was less than 3.16 nM. For the same compound, the viability, T/C (second compound 0.00316 µM, first compound 0.00316 µM) was 107%, the viability, T/C (second compound 0.00316 µM, first compound 0.01 µM) was 101% and the viability, T/C [1] was 91%. For the same compound, the viability, T/C [2] was 95.5%, the viability, T/C [3] was 91.6% and the viability, T/C [4] was 91.2%. It also gave a viability, T/C (second compound 0.01 µM, first compound 0.00316 µM) of 93%, a viability, T/C (second compound 0.01 µM, first compound 0.01 µM) of 101% and a viability, T/C [7] of 94.4%. It also gave a viability, T/C [8] of 86.2%, a viability, T/C [9] of 76.5% and a viability, T/C [10] of 82.5%. The viability, T/C (second compound 0.0316 µM, first compound 0.00316 µM) was 88.2%, the viability, T/C (second compound 0.0316 µM, first compound 0.01 µM) was 98% and the viability, T/C [13] was 81.8%. The viability, T/C [14] was 90%, the viability, T/C [15] was 72.6% and the viability, T/C [16] was 91%. It also gave a viability, T/C (second compound 0.1 µM, first compound 0.00316 µM) of 83.3%, a viability, T/C (second compound 0.1 µM, first compound 0.01 µM) of 90.6% and a viability, T/C [19] of 71.5%. It also gave a viability, T/C [20] of 58.9%, a viability, T/C [21] of 56.5% and a viability, T/C [22] of 73.8%. The viability, T/C (second compound 0.316 µM, first compound 0.00316 µM) was 58.2%, the viability, T/C (second compound 0.316 µM, first compound 0.01 µM) was 49.9% and the viability, T/C [25] was 51.2%. For the same compound, the viability, T/C [26] was 48.8%, the viability, T/C [27] was 47% and the viability, T/C [28] was 49.1%. The viability, T/C (second compound 1 µM, first compound 0.00316 µM) was 49.7%, the viability, T/C (second compound 1 µM, first compound 0.01 µM) was 36.8% and the viability, T/C [31] was 35.7%. For the same compound, the viability, T/C [32] was 32.5%, the viability, T/C [33] was 37.2% and the viability, T/C [34] was 44.8%.

`Cn1ncc(Cl)c1-c1cc(C(=O)NC(CN)Cc2cccc(F)c2)sc1Cl` (stereo unspecified) + CC(Nc1ccc2c(c1)OCCn1cc(N3C(=O)OCC3C(F)F)nc1-2)C(N)=O was tested, and the IC50 (second compound 0.00316 µM) was greater than 10000 nM, the IC50 (second compound 0.01 µM) was greater than 10000 nM and the IC50 (second compound 0.0316 µM) was greater than 10000 nM. For the same compound, the IC50 (second compound 0.1 µM) was greater than 10000 nM, the IC50 (second compound 0.316 µM) was greater than 10000 nM and the IC50 (second compound 1 µM) was less than 31.6 nM. The viability, T/C [1] was 91.4%, the viability, T/C [2] was 86.4% and the viability, T/C [3] was 80.5%. For the same compound, the viability, T/C [4] was 81.8%, the viability, T/C [5] was 73.7% and the viability, T/C [6] was 81.5%. The viability, T/C [7] was 91.2%, the viability, T/C [8] was 89.6% and the viability, T/C [9] was 82.9%. For the same compound, the viability, T/C [10] was 70.2%, the viability, T/C [11] was 65.5% and the viability, T/C [12] was 87.9%. It also gave a viability, T/C [13] of 82.1%, a viability, T/C [14] of 82.7% and a viability, T/C [15] of 68.1%. It also gave a viability, T/C [16] of 67.8%, a viability, T/C [17] of 59.5% and a viability, T/C [18] of 90.9%. For the same compound, the viability, T/C [19] was 95.7%, the viability, T/C [20] was 92.7% and the viability, T/C [21] was 71.8%. The viability, T/C [22] was 55.6%, the viability, T/C [23] was 58.9% and the viability, T/C [24] was 75%. The viability, T/C [25] was 71.4%, the viability, T/C [26] was 59.7% and the viability, T/C [27] was 60.8%. For the same compound, the viability, T/C [28] was 49.7%, the viability, T/C [29] was 47.2% and the viability, T/C [30] was 64.6%. It also gave a viability, T/C [31] of 50.8%, a viability, T/C [32] of 49.5% and a viability, T/C [33] of 49.8%. For the same compound, the viability, T/C [34] was 45.5%, the viability, T/C [35] was 50.3% and the viability, T/C [36] was 59.3%.

Source: PubChem BioAssay AID1963959 (Molecular Pharmacology Branch, DTP, NCI, 2024)
